Test results as given in US9670203B2 (BeiGene, LTD., priority 2013, dated 2017).
Where two headings read alike, the source gives them in different places.

Tests used:
[1] = system: A375; test: Anti-proliferative activity EC50 assay (CellTiter-Glo) in A375; format: cell-based; details: Homo sapiens, A-375, 72 h; 3-day exposure; read-out: Cell Proliferation EC50 (nM) A375
Experimental: (§1) The growth-inhibitory activity of compounds in A375 and p61-A375, was determined using CellTiter-Glo luminescent cell viability assay (Promega). The 2,000 cells were seeded per well of a 96-well plate to ensure logarithmic growth could occur over the 3 days treatment period. Cells were left to attach for 16 hours, cells were treated in duplicate with a 10-point dilution series. Following a 3-day exposure to compounds disclosed herein, a volume of CellTiter-Glo reagent equal to the volume of cell culture medium present in each well was added. Mixture was mixed on an orbital shaker for 2 minutes to allow cell lysis, followed by 10 minutes incubation at room temperature to allow stabilization of luminescent signal, which corresponded to quantitation of ATP and thus the quantitation of metabolically active cells. Luminescent signal was measured using Pherastar FS reader (BMG Labtech).
(§2) EC50 values for growth inhibition were calculated by fitting dose-dependent data to the four-parameter logistic model using GraphPad Prism software.

[2] = target: wild type B-Raf (Homo sapiens (Human), UniProt P15056); test: WT B-Raf IC50 assay, time-resolved fluorescence energy transfer; format: biochemical
Chain of wild type B-Raf (P15056 whole entry): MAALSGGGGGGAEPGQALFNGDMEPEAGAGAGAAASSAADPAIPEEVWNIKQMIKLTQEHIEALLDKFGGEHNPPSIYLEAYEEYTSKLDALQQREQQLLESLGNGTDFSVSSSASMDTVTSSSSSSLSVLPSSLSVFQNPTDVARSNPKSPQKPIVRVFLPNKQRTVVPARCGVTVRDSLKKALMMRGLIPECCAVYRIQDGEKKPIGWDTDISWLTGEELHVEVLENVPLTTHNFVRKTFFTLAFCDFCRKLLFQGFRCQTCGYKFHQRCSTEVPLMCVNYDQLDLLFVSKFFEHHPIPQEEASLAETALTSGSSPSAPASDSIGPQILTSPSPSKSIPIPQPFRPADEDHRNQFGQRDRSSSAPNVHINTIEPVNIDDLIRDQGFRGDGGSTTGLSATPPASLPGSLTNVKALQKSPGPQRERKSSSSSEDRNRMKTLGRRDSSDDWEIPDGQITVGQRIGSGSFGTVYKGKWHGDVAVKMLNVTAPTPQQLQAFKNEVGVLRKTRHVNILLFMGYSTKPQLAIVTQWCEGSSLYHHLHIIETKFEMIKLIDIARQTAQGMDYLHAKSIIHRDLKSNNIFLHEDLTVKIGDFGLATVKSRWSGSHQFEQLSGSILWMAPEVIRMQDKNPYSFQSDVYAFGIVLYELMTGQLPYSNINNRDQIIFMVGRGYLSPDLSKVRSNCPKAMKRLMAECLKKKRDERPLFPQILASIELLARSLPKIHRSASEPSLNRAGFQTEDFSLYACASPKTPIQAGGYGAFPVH
Experimental: The IC50 for each compound was calculated by non linear regression by Graphpad Prism software.

[3] = target: B-Raf (V600E) (Homo sapiens (Human), UniProt P15056, V600E); test: Raf IC50 assay, time-resolved fluorescence energy transfer, B-Raf (V600E); format: biochemical; details: 0.1 mM ATP; read-out: IC50 (nM) B_Raf^V600E
Chain of B-Raf (V600E) (P15056 whole entry V600E): as the sequence (P15056 whole entry) above, with V600E counted along it
Experimental: The enzyme was incubated with the compounds at room temperature for 60 minutes and the reactions were initiated by the addition of ATP and GST-MEK1. After reaction at room temperature for 60 minutes, an equal volume of stop/detection solution was added according to the manufacture's instruction (CisBio Bioassays). […] The IC50 for each compound was derived from fitting the dose-response % inhibition data to the four-parameter logistic model by Graphpad Prism software.

[4] = target: C-Raf (Y340D/Y341D) (Homo sapiens (Human), UniProt P04049, Y340D/Y341D); test: Raf IC50 assay, time-resolved fluorescence energy transfer, C-Raf (Y340D/Y341D); format: biochemical; details: 0.1 mM ATP
Chain of C-Raf (Y340D/Y341D) (P04049 whole entry Y340D/Y341D): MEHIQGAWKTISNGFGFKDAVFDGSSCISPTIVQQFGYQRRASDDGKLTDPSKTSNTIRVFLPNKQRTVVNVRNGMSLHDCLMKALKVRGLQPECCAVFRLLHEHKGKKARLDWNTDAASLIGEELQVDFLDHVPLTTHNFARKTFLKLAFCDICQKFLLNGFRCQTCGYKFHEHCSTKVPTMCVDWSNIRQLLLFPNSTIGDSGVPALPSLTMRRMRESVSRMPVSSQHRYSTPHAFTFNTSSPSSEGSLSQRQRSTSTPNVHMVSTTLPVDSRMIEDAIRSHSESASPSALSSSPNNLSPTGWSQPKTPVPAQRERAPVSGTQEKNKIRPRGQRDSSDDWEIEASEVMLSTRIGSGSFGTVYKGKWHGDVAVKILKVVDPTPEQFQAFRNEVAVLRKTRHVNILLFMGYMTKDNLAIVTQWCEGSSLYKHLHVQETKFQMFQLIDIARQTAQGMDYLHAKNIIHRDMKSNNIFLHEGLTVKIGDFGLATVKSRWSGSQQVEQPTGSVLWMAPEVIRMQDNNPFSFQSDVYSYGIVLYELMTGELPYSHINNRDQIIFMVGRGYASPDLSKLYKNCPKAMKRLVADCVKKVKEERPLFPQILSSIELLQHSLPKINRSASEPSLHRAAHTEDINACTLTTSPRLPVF
Experimental: The assay was carried out in reactions (10 μL) containing 0.0625 nM B-Raf or 0.5 nM C-Raf, 25 mM Tris pH7.4, 10 mM MgCl2, 0.5 mM EGTA, 0.5 mM Na3VO4, 5 mM beta-glycerophosphate, 0.01% Triton X-100, 2.5 mM DTT, 0.1% BSA, 0.1 mM ATP, 13.7 nM GST-tagged MEK1 (Full-length protein with K97R mutation, recombinant protein purified from bacterial expression system) and 0-5 μM compounds disclosed herein (final concentration of 1% DMSO). The enzyme was incubated with the compounds at room temperature for 60 minutes and the reactions were initiated by the addition of ATP and GST-MEK1. After reaction at room temperature for 60 minutes, an equal volume of stop/detection solution was added according to the manufacture's instruction (CisBio Bioassays). The stop/detection solution contained Eu^3+ cryptate-conjugated anti-phospho MEK1/2 (Ser217/221) rabbit polyclonal antibody and d2-conjugated anti-GST mouse monoclonal antibody in buffer containing 25 mM Tris pH7.4, 400 mM KF, 50 mM EDTA, 0.01% BSA and 0.01% Triton X-100. Plates were sealed and incubated at room temperature for 2 hours, and the TR-FRET signals (ratio of fluorescence emission at 665 nm over emission at 620 nm with excitation at 337 nm wavelength) were recorded on a PHERAstar FS plate reader (BMG Labtech). Phosphorylation of MEK1 led to the binding of anti-phospho-MEK1/2 antibody to GST-MEK1 protein that place fluorescent donor (Eu^3+ crypate) in close proximity to the accepter d2 on the anti-GST antibody, thus resulting in a high degree of fluorescence resonance energy transfer from the donor fluorophore (at 620 nm) to the acceptor fluorophore (at 665 nm). […] The IC50 for each compound was derived from fitting the dose-response % inhibition data to the four-parameter logistic model by Graphpad Prism software.

[5] = system: Calu-6 (pERK); test: ERK phosphorylation inhibition IC50 assay in Calu-6; format: cell-based; details: Homo sapiens, 1 hour compound treatment
Experimental: (§3) Growth medium was then replaced with 100 μL of serum free DMEM, cells were then treated with a 10-point titration of compounds disclosed herein. After 1 hour compound treatment, 50 μL of lysis buffer (Cisbio) were added to each well and incubated at room temperature with shaking for 30 minutes. A total of 16 μL of cell lysate from each well of a 96-well plate was transferred to a 384-well small volume white plate. Lysate from each well was incubated with 2 μL of Eu^3+-cryptate (donor) labeled anti-ERK antibody (Cisbio) and 2 μL of D2 (acceptor) labeled anti-phospho-ERK antibody (Cisbio) for 2 hours at room temperature. When donor and acceptor are in close proximity, excitation of the donor with laser triggers a Fluorescence Resonance Energy Transfer (FRET) towards the acceptor, which in turn fluoresces at 655 nm wavelength. Fluorescence values were measured using a BMG reader.
(§4) IC50 values for ERK inhibition were calculated by fitting dose-dependent data to the four-parameter logistic model using GraphPad Prism software.

[6] = system: p61-A375; test: Anti-proliferative activity EC50 assay (CellTiter-Glo) in p61-A375; format: cell-based; details: 72 h; 3-day exposure; read-out: Cell Proliferation EC50 (nM) p61-A375
Experimental: (§5) To express p61 in mammalian cells, cDNA encoding the p61 (Poulikakos et al., Nature. 2011 Nov. 23; 480(7377):387-90) was synthesized by Genscript and cloned into pLVX-IRES-Puro vector (Clontech). The cDNA was a modified form of p61 in which sequencing encoding the flag-epitope had been inserted to the C-terminus, resulting in the expression of flag-tagged forms of protein. A375 cells were stably transfected with the Flag-p61 expressing plasmid and selected with DMEM containing […] puromycin (Invitrogen). Cells were cloned by limiting dilution in a 96-wells plate and the clones screened by western blot analysis using a monoclonal antibody directed against the flag-epitope.
as §1, §2

[7] = system: p61-A375 (pERK); test: ERK phosphorylation inhibition IC50 assay in p61-A375; format: cell-based; details: 1 hour compound treatment
Experimental: as §5, §3, §4

[8] = system: HeLa (pERK); test: ERK phosphorylation inhibition IC50 assay in HeLa; format: cell-based; details: Homo sapiens, 1 hour compound treatment
Experimental: as §3, §4

[9] = 2.5 mM ATP, read-out: IC50 (nM) B-Raf^WT 2.5 mM ATP
[10] = Km ATP (2.9 μM ATP), read-out: IC50 (nM) B-Raf^WT Km ATP

Structure (SMILES) | EC50 [1] | IC50 [2, 9] | IC50 [2, 10] | IC50 [3] | IC50 [4] | IC50 [5] | EC50 [6] | IC50 [7] | IC50 [8]
O=C1CCc2c(Oc3ccc4c(c3)[C@H]3[C@H](NC(=O)Nc5cccc(C(F)(F)F)c5)[C@H]3O4)ccnc2N1 [Compound 1.1, 1-((1S,1aS,6bS)-5-((7-oxo-5,6,7,8-tetrahydro-1,8-naphthyridin-4-yl)oxy)-1a,6b-dihydro-1H-cyclopropa[b]benzofuran-1-yl)-3-(3-(trifluoromethyl)phenyl)urea] | 109 nM | 43 nM | 13 nM | 8.3 nM | 1.6 nM | – | – | – | –
O=C1CCc2c(Oc3ccc4c(c3)[C@H]3[C@H](NC(=O)Nc5cc(C(F)(F)F)ccn5)[C@H]3O4)ccnc2N1 [Compound 1.2] | 122 nM | 18 nM | 6.3 nM | 4 nM | 0.77 nM | – | – | – | –
COc1cccc(NC(=O)N[C@@H]2[C@H]3Oc4ccc(Oc5ccnc6c5CCC(=O)N6)cc4[C@@H]23)c1Cl [Compound 1.6] | 229 nM | 11 nM | 4.5 nM | 1.9 nM | 0.33 nM | – | – | – | –
O=C1CCc2c(Oc3ccc4c(c3)[C@H]3[C@H](NC(=O)Nc5cc(F)cc(C(F)(F)F)c5)[C@H]3O4)ccnc2N1 [Compound 1.11] | 147 nM | 110 nM | 30 nM | 5.5 nM | 1.8 nM | – | – | – | –
O=C1CCc2c(Oc3ccc4c(c3)[C@H]3[C@H](NC(=O)Nc5cccc(C(F)(F)F)c5F)[C@H]3O4)ccnc2N1 [Compound 1.12] | 106 nM | 86 nM | 23 nM | 4.7 nM | 1.1 nM | – | – | – | –
O=C1CCc2c(Oc3ccc4c(c3)[C@H]3[C@H](NC(=O)Nc5ccccc5F)[C@H]3O4)ccnc2N1 [Compound 1.21] | 128 nM | 2.5 nM | 0.87 nM | 1.1 nM | 0.066 nM | – | – | – | –
O=C1CCc2c(Oc3ccc4c(c3)[C@H]3[C@H](NC(=O)Nc5cccc(F)c5)[C@H]3O4)ccnc2N1 [Compound 1.22] | 87 nM | 4.2 nM | 1.7 nM | 1.3 nM | 0.18 nM | – | – | – | –
O=C1CCc2c(Oc3ccc4c(c3)[C@H]3[C@H](NC(=O)Nc5cc(F)cc(F)c5)[C@H]3O4)ccnc2N1 [Compound 1.23] | 109 nM | 12 nM | 3.7 nM | 1.8 nM | 0.3 nM | 101 nM | 479 nM | 253 nM | 189 nM
Cc1cc(NC(=O)N[C@@H]2[C@H]3Oc4ccc(Oc5ccnc6c5CCC(=O)N6)cc4[C@@H]23)ccc1F [Compound 1.24] | 25 nM | 7.7 nM | 2.7 nM | 1.5 nM | 0.37 nM | – | – | – | –
O=C1CCc2c(Oc3ccc4c(c3)[C@H]3[C@H](NC(=O)Nc5ccc(Cl)c(C(F)(F)F)c5)[C@H]3O4)ccnc2N1 [Compound 1.25] | 25 nM | – | 33 nM | 27 nM | 2.3 nM | – | – | – | –
O=C1CCc2c(Oc3ccc4c(c3)[C@H]3[C@H](NC(=O)Nc5ccc(Cl)c(Cl)c5)[C@H]3O4)ccnc2N1 [Compound 1.28] | 40 nM | 49 nM | 16 nM | 5.5 nM | 0.77 nM | – | – | – | –
O=C1CCc2c(Oc3ccc4c(c3)[C@H]3[C@H](NC(=O)Nc5ccc(F)c(C(F)(F)F)c5)[C@H]3O4)ccnc2N1 [Compound 1.32] | 55 nM | 58 nM | 17 nM | 7.7 nM | 1.2 nM | 301 nM | 527 nM | 433 nM | 536 nM
O=C1CCc2c(Oc3ccc4c(c3)[C@H]3[C@H](NC(=O)Nc5ccc(F)cc5F)[C@H]3O4)ccnc2N1 [Compound 1.35] | 143 nM | 4.1 nM | 1 nM | 0.59 nM | 0.25 nM | 75 nM | 1130 nM | 314 nM | 610 nM
O=C1CCc2c(Oc3ccc4c(c3)[C@H]3[C@H](NC(=O)Nc5ccc(F)cc5)[C@H]3O4)ccnc2N1 [Compound 1.41] | 65 nM | – | 0.57 nM | 0.8 nM | 0.15 nM | – | – | – | –
O=C1CCc2c(Oc3ccc4c(c3)[C@H]3[C@H](NC(=O)Nc5cccc(F)c5F)[C@H]3O4)ccnc2N1 [Compound 1.42] | 178 nM | – | 1.5 nM | 0.94 nM | 0.24 nM | – | – | – | –
O=C1CCc2c(Oc3ccc4c(c3)[C@H]3[C@H](NC(=O)Nc5cc(F)ccc5F)[C@H]3O4)ccnc2N1 [Compound 1.43] | 96 nM | 5.9 nM | 2.1 nM | 1.2 nM | 0.26 nM | – | – | – | –
O=C1CCc2c(Oc3ccc4c(c3)[C@H]3[C@H](NC(=O)Nc5c(F)cccc5F)[C@H]3O4)ccnc2N1 [Compound 1.44] | 702 nM | – | 1.9 nM | 1.3 nM | 0.21 nM | – | – | – | –
O=C1CCc2c(Oc3ccc4c(c3)[C@H]3[C@H](NC(=O)Nc5ccc(F)c(F)c5F)[C@H]3O4)ccnc2N1 [Compound 1.46] | 109 nM | 6 nM | 1.7 nM | 0.78 nM | 0.22 nM | – | – | – | –
O=C1CCc2c(Oc3ccc4c(c3)[C@H]3[C@H](NC(=O)Nc5cc(F)c(F)c(F)c5)[C@H]3O4)ccnc2N1 [Compound 1.47] | 140 nM | 23 nM | 6.4 nM | 4.1 nM | 0.53 nM | – | – | – | –
O=C1CCc2c(Oc3ccc4c(c3)[C@H]3[C@H](NC(=O)NC5CCCCCC5)[C@H]3O4)ccnc2N1 [Compound 1.52] | 47.7 nM | – | 1.7 nM | 1.4 nM | 0.25 nM | 411 nM | – | 173 nM | 5430 nM
O=C1CCc2c(Oc3ccc4c(c3)[C@H]3[C@H](NC(=O)Nc5cc(F)cc(F)c5F)[C@H]3O4)ccnc2N1 [Compound 1.53] | 77 nM | – | – | 2.9 nM | – | – | 1320 nM | – | –
O=C1CCc2c(Oc3ccc4c(c3)[C@H]3[C@H](NC(=O)NC5CCCCC5)[C@H]3O4)ccnc2N1 [Compound 1.66] | 101 nM | – | 2.3 nM | 2.3 nM | 0.25 nM | – | – | – | –
CCN1CCN(Cc2ccc(NC(=O)N[C@@H]3[C@H]4Oc5ccc(Oc6ccnc7c6CCC(=O)N7)cc5[C@@H]34)cc2C(F)(F)F)CC1 [Compound 1.73, 1-(4-((4-ethylpiperazin-1-yl)methyl)-3-(trifluoromethyl)phenyl)-3-((1S,1aS,6bS)-5-((7-oxo-5,6,7,8-tetrahydro-1,8-naphthyridin-4-yl)oxy)-1a,6b-dihydro-1H-cyclopropa[b]benzofuran-1-yl)urea] | 1330 nM | – | 13 nM | 13 nM | 0.84 nM | – | – | – | –
COc1cc(NC(=O)N[C@@H]2[C@H]3Oc4ccc(Oc5ccnc6c5CCC(=O)N6)cc4[C@@H]23)ccn1 [Compound 1.75, 1-(2-methoxypyridin-4-yl)-3-((1S,1aS,6bS)-5-((7-oxo-5,6,7,8-tetrahydro-1,8-naphthyridin-4-yl)oxy)-1a,6b-dihydro-1H-cyclopropa[b]benzofuran-1-yl)urea] | 405 nM | – | 2.4 nM | 2.2 nM | 0.27 nM | – | – | – | –
CCCS(=O)(=O)Nc1ccc(F)c(C(=O)c2c[nH]c3ncc(-c4ccc(Cl)cc4)cc23)c1F [Vemurafenib, reference compound] | 178 nM | – | – | – | – | > 10000 nM | > 10000 nM | > 10000 nM | 5820 nM
